Measurements as given in patent publication US20140256656A1, “D-MANNOSE CONTRACEPTIVES” (Bio-Tech Pharmacal, Inc., priority 2002, published 2014).

Assays:
[1] = test system: sperm adhering or attaching to the egg; test: Equine-field observation of conception after D-Mannose; assay type: in vivo; settings: D-Mannose in sufficient quantities at the appropriate times
Source text: In the equine field, Mr. […] Accordingly, the invention finds application in all fields of mammal animal husbandry to prevent unwanted cross-breeding, and to also prevent unwanted unproductive periods that are caused by undesired breeding.

bacteria = settings: as described in the referenced earlier patents and applications of Dale Benedict; cited from earlier work

In the case of `O=C[C@@H](O)[C@@H](O)[C@H](O)[C@H](O)CO` [D-Mannose], the likelihood of conception [1] is given as “reduces the likelihood of conception” and the “adherence of bacteria to membranes or cell walls” value (bacteria) is given as “inhibits the adherence of bacteria to membranes or cell walls”.
